In publication PMC10704857 (Journal of medicinal chemistry, 2021):

What was measured:
[1] = system: cisplatin toxicity; assay type: cell-based
[2] = system: Stx2a holotoxin in Vero cells; assay type: cell-based
[3] = target: RTA depurination of yeast ribosomes (Ricinus communis, UniProt P02879); assay type: biochemical

Row | SMILES | effect on toxicity of cisplatin [1] | inhibition of depurination by Stx2a [2] | protection of yeast ribosomes from depurination [3] | fold improved IC50 relative to CC10501 [3] [fold]
1 | Cc1cccc(C)c1-c1ccc(C(=O)O)s1 [RU-NT-93, 5-(2,6-Dimethylphenyl)thiophene-2-carboxylic Acid] | did not alter | did not protect |  | 
2 | O=C(O)c1ccc(-c2cccc3c2OCC3)s1 [RU-NT-105, 5-(2,3-Dihydrobenzofuran-7-yl)thiophene-2-carboxylic Acid] |  |  | not active | 
3 | Cc1ccccc1-c1ccc(C(=O)O)s1 [RU-NT-70, 5-(o-Tolyl)thiophene-2-carboxylic Acid] |  |  |  | 10
4 | CCc1ccccc1-c1ccc(C(=O)O)s1 [RU-NT-102, 5-(2-Ethylphenyl)thiophene-2-carboxylic Acid] | did not alter | did not protect |  | 12
